Assay results: patent US20230301300A1, “HERBICIDAL COMPOSITIONS” (SYNGENTA CROP PROTECTION AG, priority 2020, published 2023)

How the values were obtained:
Experiment in all cases: B2 Post-Emergence Efficacy - Test 2
Format in all cases: in vivo
[1] = tested on: Alopecurus myosuroides (ALOMY); details: 15 days after application, 0-100 scale
Outline: (§1)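 Herbicidal effect was rated visually from 0 (no damage) to 100 (complete kill) fifteen days after treatment. Seedlings had been raised for 12 days under controlled glasshouse conditions and then sprayed with the active ingredient formulated in IF50, diluted in water with 0.2% v/v Genapol X080 adjuvant.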

[2] = tested on: Chenopodium album (CHEAL); details: 15 days after application, 0-100 scale
Outline: as §1

Sida spinosa (SIDSP) = details: 15 days after application, 0-100 scale
Outline: as §1

Poa annua (POAAN) = details: 15 days after application, 0-100 scale
Outline: as §1

[3] = tested on: Xanthium strumarium (XANST); details: 15 days after application, 0-100 scale
Outline: as §1

Galium aparine (GALAP) = details: 15 days after application, 0-100 scale
Outline: as §1

Sorghum bicolour (SORVU) = details: 15 days after application, 0=no damage, 100=total kill
Outline: as §1

[4] = tested on: Panicum miliaceum (PANMI); details: 15 days after application, 0=no damage, 100=total kill
Outline: as §1

Lolium perenne (LOLPE) = details: 15 days after application, 0-100 scale
Outline: as §1

[5] = tested on: Triticum aestivum (TRZAW); details: 15 days after application, 0-100 scale
Outline: as §1

Zea mays (ZEAMX) = details: 15 days after application; for Herbicidal activity ZEAMX: 0-100 scale; for Herbicidal activity on a 0-100 scale, ZEAMX: 0=no damage, 100=total kill
Outline: as §1

[6] = tested on: Digitaria sanguinalis (DIGSA); details: 15 days after application, 0=no damage, 100=total kill
Outline: as §1

Veronica persica (VERPE) = details: 15 days after application, 0-100 scale
Outline: as §1

Bidens pilosa (BIDPI) = details: 15 days after application, 0-100 scale
Outline: as §1

Stellaria media (STEME) = details: 15 days after application, 0-100 scale
Outline: as §1

Brassica napus (BRSNN) = details: 15 days after application, 0-100 scale
Outline: as §1

Eleisine indica (ELEIN) = details: 15 days after application, 0=no damage, 100=total kill
Outline: as §1

Beta vulgaris (BEAVA) = details: 15 days after application, 0-100 scale
Outline: as §1

Cc1nn(C)c(=O)c(-c2c(F)ccc(Cl)c2CCc2ccc(C(F)(F)F)nc2)c1O [Compound 1.042, 4-[3-chloro-6-fluoro-2-[2-[6-(trifluoromethyl)-3-pyridyl]ethyl]phenyl]-5-hydroxy-2,6-dimethyl-pyridazin-3-one]
Herbicidal activity ALOMY ([1]; 15 g/Ha): 20
Herbicidal activity ALOMY ([1]; 30 g/Ha): 60
Herbicidal activity ALOMY ([1]; 60 g/Ha): 80
Herbicidal activity ALOMY ([1]; 125 g/Ha): 80
Herbicidal activity ALOMY ([1]; 250 g/Ha): 90
Herbicidal activity ALOMY ([1]; 500 g/Ha): 90
Herbicidal activity CHEAL ([2]; 30 g/Ha): 90
Herbicidal activity CHEAL ([2]; 60 g/Ha): 90
Herbicidal activity CHEAL ([2]; 125 g/Ha): 90
Herbicidal activity CHEAL ([2]; 250 g/Ha): 100
Herbicidal activity CHEAL ([2]; 500 g/Ha): 100
Herbicidal activity SIDSP (Sida spinosa (SIDSP); 15 g/Ha): 90
Herbicidal activity SIDSP (Sida spinosa (SIDSP); 30 g/Ha): 90
Herbicidal activity SIDSP (Sida spinosa (SIDSP); 60 g/Ha): 100
Herbicidal activity SIDSP (Sida spinosa (SIDSP); 250 g/Ha): 100
Herbicidal activity SIDSP (Sida spinosa (SIDSP); 500 g/Ha): 100
Herbicidal activity POAAN (Poa annua (POAAN); 15 g/Ha): 20
Herbicidal activity POAAN (Poa annua (POAAN); 30 g/Ha): 70
Herbicidal activity POAAN (Poa annua (POAAN); 60 g/Ha): 80
Herbicidal activity POAAN (Poa annua (POAAN); 125 g/Ha): 90
Herbicidal activity POAAN (Poa annua (POAAN); 250 g/Ha): 90
Herbicidal activity POAAN (Poa annua (POAAN); 500 g/Ha): 90
Herbicidal activity XANST ([3]; 15 g/Ha): 80
Herbicidal activity XANST ([3]; 125 g/Ha): 90
Herbicidal activity XANST ([3]; 250 g/Ha): 100
Herbicidal activity XANST ([3]; 500 g/Ha): 100
Herbicidal activity GALAP (Galium aparine (GALAP); 15 g/Ha): 10
Herbicidal activity GALAP (Galium aparine (GALAP); 30 g/Ha): 30
Herbicidal activity GALAP (Galium aparine (GALAP); 60 g/Ha): 60
Herbicidal activity GALAP (Galium aparine (GALAP); 125 g/Ha): 80
Herbicidal activity GALAP (Galium aparine (GALAP); 250 g/Ha): 80
Herbicidal activity GALAP (Galium aparine (GALAP); 500 g/Ha): 90
Herbicidal activity on a 0-100 scale, SORVU (Sorghum bicolour (SORVU); 15 g/Ha): 0
Herbicidal activity on a 0-100 scale, SORVU (Sorghum bicolour (SORVU); 30 g/Ha): 70
Herbicidal activity on a 0-100 scale, SORVU (Sorghum bicolour (SORVU); 60 g/Ha): 80
Herbicidal activity on a 0-100 scale, SORVU (Sorghum bicolour (SORVU); 125 g/Ha): 90
Herbicidal activity on a 0-100 scale, SORVU (Sorghum bicolour (SORVU); 250 g/Ha): 90
Herbicidal activity on a 0-100 scale, SORVU (Sorghum bicolour (SORVU); 500 g/Ha): 100
Herbicidal activity on a 0-100 scale, PANMI ([4]; 15 g/Ha): 10
Herbicidal activity on a 0-100 scale, PANMI ([4]; 30 g/Ha): 60
Herbicidal activity on a 0-100 scale, PANMI ([4]; 60 g/Ha): 80
Herbicidal activity on a 0-100 scale, PANMI ([4]; 125 g/Ha): 90
Herbicidal activity on a 0-100 scale, PANMI ([4]; 250 g/Ha): 100
Herbicidal activity on a 0-100 scale, PANMI ([4]; 500 g/Ha): 100
Herbicidal activity LOLPE (Lolium perenne (LOLPE); 15 g/Ha): 60
Herbicidal activity LOLPE (Lolium perenne (LOLPE); 30 g/Ha): 70
Herbicidal activity LOLPE (Lolium perenne (LOLPE); 60 g/Ha): 70
Herbicidal activity LOLPE (Lolium perenne (LOLPE); 125 g/Ha): 90
Herbicidal activity LOLPE (Lolium perenne (LOLPE); 250 g/Ha): 90
Herbicidal activity LOLPE (Lolium perenne (LOLPE); 500 g/Ha): 90
Herbicidal activity TRZAW ([5]; 15 g/Ha): 20
Herbicidal activity TRZAW ([5]; 30 g/Ha): 30
Herbicidal activity TRZAW ([5]; 60 g/Ha): 60
Herbicidal activity TRZAW ([5]; 125 g/Ha): 70
Herbicidal activity TRZAW ([5]; 250 g/Ha): 80
Herbicidal activity TRZAW ([5]; 500 g/Ha): 80
Herbicidal activity ZEAMX (Zea mays (ZEAMX); 15 g/Ha): 0
Herbicidal activity on a 0-100 scale, ZEAMX (Zea mays (ZEAMX); 15 g/Ha): 0
Herbicidal activity ZEAMX (Zea mays (ZEAMX); 30 g/Ha): 10
Herbicidal activity on a 0-100 scale, ZEAMX (Zea mays (ZEAMX); 30 g/Ha): 10
Herbicidal activity ZEAMX (Zea mays (ZEAMX); 60 g/Ha): 20
Herbicidal activity on a 0-100 scale, ZEAMX (Zea mays (ZEAMX); 60 g/Ha): 20
Herbicidal activity ZEAMX (Zea mays (ZEAMX); 125 g/Ha): 60
Herbicidal activity on a 0-100 scale, ZEAMX (Zea mays (ZEAMX); 125 g/Ha): 60
Herbicidal activity ZEAMX (Zea mays (ZEAMX); 250 g/Ha): 70
Herbicidal activity on a 0-100 scale, ZEAMX (Zea mays (ZEAMX); 250 g/Ha): 70
Herbicidal activity ZEAMX (Zea mays (ZEAMX); 500 g/Ha): 90
Herbicidal activity on a 0-100 scale, ZEAMX (Zea mays (ZEAMX); 500 g/Ha): 90
Herbicidal activity on a 0-100 scale, DIGSA ([6]; 15 g/Ha): 0
Herbicidal activity on a 0-100 scale, DIGSA ([6]; 30 g/Ha): 60
Herbicidal activity on a 0-100 scale, DIGSA ([6]; 60 g/Ha): 70
Herbicidal activity on a 0-100 scale, DIGSA ([6]; 125 g/Ha): 70
Herbicidal activity on a 0-100 scale, DIGSA ([6]; 250 g/Ha): 80
Herbicidal activity on a 0-100 scale, DIGSA ([6]; 500 g/Ha): 90
Herbicidal activity VERPE (Veronica persica (VERPE); 15 g/Ha): 80
Herbicidal activity VERPE (Veronica persica (VERPE); 30 g/Ha): 90
Herbicidal activity VERPE (Veronica persica (VERPE); 60 g/Ha): 100
Herbicidal activity VERPE (Veronica persica (VERPE); 125 g/Ha): 100
Herbicidal activity VERPE (Veronica persica (VERPE); 250 g/Ha): 100
Herbicidal activity VERPE (Veronica persica (VERPE); 500 g/Ha): 100
Herbicidal activity BIDPI (Bidens pilosa (BIDPI); 15 g/Ha): 70
Herbicidal activity BIDPI (Bidens pilosa (BIDPI); 30 g/Ha): 70
Herbicidal activity BIDPI (Bidens pilosa (BIDPI); 60 g/Ha): 70
Herbicidal activity BIDPI (Bidens pilosa (BIDPI); 125 g/Ha): 70
Herbicidal activity BIDPI (Bidens pilosa (BIDPI); 250 g/Ha): 80
Herbicidal activity BIDPI (Bidens pilosa (BIDPI); 500 g/Ha): 90
Herbicidal activity STEME (Stellaria media (STEME); 15 g/Ha): 100
Herbicidal activity STEME (Stellaria media (STEME); 30 g/Ha): 100
Herbicidal activity STEME (Stellaria media (STEME); 60 g/Ha): 90
Herbicidal activity STEME (Stellaria media (STEME); 125 g/Ha): 100
Herbicidal activity STEME (Stellaria media (STEME); 250 g/Ha): 100
Herbicidal activity STEME (Stellaria media (STEME); 500 g/Ha): 100
Herbicidal activity BRSNN (Brassica napus (BRSNN); 15 g/Ha): 90
Herbicidal activity BRSNN (Brassica napus (BRSNN); 30 g/Ha): 90
Herbicidal activity BRSNN (Brassica napus (BRSNN); 60 g/Ha): 90
Herbicidal activity BRSNN (Brassica napus (BRSNN); 125 g/Ha): 90
Herbicidal activity BRSNN (Brassica napus (BRSNN); 250 g/Ha): 90
Herbicidal activity BRSNN (Brassica napus (BRSNN); 500 g/Ha): 90
Herbicidal activity on a 0-100 scale, ELEIN (Eleisine indica (ELEIN); 15 g/Ha): 0
Herbicidal activity on a 0-100 scale, ELEIN (Eleisine indica (ELEIN); 30 g/Ha): 70
Herbicidal activity on a 0-100 scale, ELEIN (Eleisine indica (ELEIN); 60 g/Ha): 70
Herbicidal activity on a 0-100 scale, ELEIN (Eleisine indica (ELEIN); 125 g/Ha): 80
Herbicidal activity on a 0-100 scale, ELEIN (Eleisine indica (ELEIN); 250 g/Ha): 80
Herbicidal activity on a 0-100 scale, ELEIN (Eleisine indica (ELEIN); 500 g/Ha): 90
Herbicidal activity BEAVA (Beta vulgaris (BEAVA); 15 g/Ha): 80
Herbicidal activity BEAVA (Beta vulgaris (BEAVA); 30 g/Ha): 70
Herbicidal activity BEAVA (Beta vulgaris (BEAVA); 60 g/Ha): 80
Herbicidal activity BEAVA (Beta vulgaris (BEAVA); 125 g/Ha): 90
Herbicidal activity BEAVA (Beta vulgaris (BEAVA); 250 g/Ha): 90
Herbicidal activity BEAVA (Beta vulgaris (BEAVA); 500 g/Ha): 90
